Experimental data: patent US10544415B2, “Methods for producing enteroendocrine cells that make and secrete insulin” (The Trustees Of Columbia University In The City Of New York, priority 2010, dated 2020)

Tests used:
[1] = molecular target: KATP channel (Mus musculus, UniProt B2RUS7); conditions: NKO gut segments, 1 hr; 10 nM glibenclamide or 0.5 mM diazoxide
Method: Adult intestine was stained in medium containing 0.12 mM Dithizone (DTZ) (10) and selected 5-inches-long DTZ+ fragments from NKO mice or anatomically matched control mice. The intestines were cut open and incubated in glucose-free DMEM supplemented with 10% FBS and 20 mM glucose for 30 min. At the end of the incubation, insulin and C peptide 2 content was measured in the medium by ELISA (Millipore). Collagenase-purified pancreatic islets from 14-week-old WT mice served as controls (5).
To determine whether Ggut Ins^+ cells are functionally competent to secrete insulin, we performed ex vivo assays of insulin secretion in response to glucose and KATP channel modulators, using DTZ staining to select gut segments enriched in Ins^+ cells from NKO mice and anatomically matched segments from control mice.
Adult intestine were strained in medium containing 0.12 mM Dithizone (DTZ) (Tuttle et al Nat Med, 2001) and selected 5-inches-long DTZ+ fragments from NKO mice or anatomically matched fragments from control WT mice. […] At the end of the incubation, we measured insulin and C-peptide 2 content in the medium by ELISA (Millipore). Collagenase-purified pancreatic islets from 14-week-old WT mice served as controls (Kitamura et al., MCB 2009). Experiments were carried out using adult intestines (n=4).

[2] = Insulin bioassay: acid-ethanol tissue extracts injected into newborn mice, blood glucose; type: in vivo, mouse
Method: Insulin bioassay. Acid-ethanol extracts were prepared from neonatal (P3) gut, liver, and pancreas (35). Tissue extract or recombinant human insulin (Humulin R, Eli Lilly) (10 U/ml in acid-ethanol) were mixed with either insulin neutralizing antibody (Thermo Scientific) or isotype-matched mouse IgG1 (Ebiosciences) for subcutaneous injections in 50 microliters volume. Glucose was measured immediately prior to and 5 minutes after injections.
To examine whether intestinal insulin secreted by Gut Ins+ cells is bioactive, acid-ethanol extracts from NKO gut were prepared, extracts were also prepared from gut, pancreas and liver of WT mice, and injected into newborn mice. Extracts from newborn NKO intestine lowered blood glucose by about 20%, similar to pancreatic extracts from age-matched control mice or recombinant human insulin (FIG. 3C). In contrast, extracts from control intestines or liver had no effect. The ability of NKO gut extracts (reflecting the presence of Gut Ins+ cells) to lower blood glucose was preempted by the addition of an insulin-neutralizing antibody, as was pancreatic extracts from control mice and recombinant insulin.

Sequence of KATP channel (B2RUS7 1-1588): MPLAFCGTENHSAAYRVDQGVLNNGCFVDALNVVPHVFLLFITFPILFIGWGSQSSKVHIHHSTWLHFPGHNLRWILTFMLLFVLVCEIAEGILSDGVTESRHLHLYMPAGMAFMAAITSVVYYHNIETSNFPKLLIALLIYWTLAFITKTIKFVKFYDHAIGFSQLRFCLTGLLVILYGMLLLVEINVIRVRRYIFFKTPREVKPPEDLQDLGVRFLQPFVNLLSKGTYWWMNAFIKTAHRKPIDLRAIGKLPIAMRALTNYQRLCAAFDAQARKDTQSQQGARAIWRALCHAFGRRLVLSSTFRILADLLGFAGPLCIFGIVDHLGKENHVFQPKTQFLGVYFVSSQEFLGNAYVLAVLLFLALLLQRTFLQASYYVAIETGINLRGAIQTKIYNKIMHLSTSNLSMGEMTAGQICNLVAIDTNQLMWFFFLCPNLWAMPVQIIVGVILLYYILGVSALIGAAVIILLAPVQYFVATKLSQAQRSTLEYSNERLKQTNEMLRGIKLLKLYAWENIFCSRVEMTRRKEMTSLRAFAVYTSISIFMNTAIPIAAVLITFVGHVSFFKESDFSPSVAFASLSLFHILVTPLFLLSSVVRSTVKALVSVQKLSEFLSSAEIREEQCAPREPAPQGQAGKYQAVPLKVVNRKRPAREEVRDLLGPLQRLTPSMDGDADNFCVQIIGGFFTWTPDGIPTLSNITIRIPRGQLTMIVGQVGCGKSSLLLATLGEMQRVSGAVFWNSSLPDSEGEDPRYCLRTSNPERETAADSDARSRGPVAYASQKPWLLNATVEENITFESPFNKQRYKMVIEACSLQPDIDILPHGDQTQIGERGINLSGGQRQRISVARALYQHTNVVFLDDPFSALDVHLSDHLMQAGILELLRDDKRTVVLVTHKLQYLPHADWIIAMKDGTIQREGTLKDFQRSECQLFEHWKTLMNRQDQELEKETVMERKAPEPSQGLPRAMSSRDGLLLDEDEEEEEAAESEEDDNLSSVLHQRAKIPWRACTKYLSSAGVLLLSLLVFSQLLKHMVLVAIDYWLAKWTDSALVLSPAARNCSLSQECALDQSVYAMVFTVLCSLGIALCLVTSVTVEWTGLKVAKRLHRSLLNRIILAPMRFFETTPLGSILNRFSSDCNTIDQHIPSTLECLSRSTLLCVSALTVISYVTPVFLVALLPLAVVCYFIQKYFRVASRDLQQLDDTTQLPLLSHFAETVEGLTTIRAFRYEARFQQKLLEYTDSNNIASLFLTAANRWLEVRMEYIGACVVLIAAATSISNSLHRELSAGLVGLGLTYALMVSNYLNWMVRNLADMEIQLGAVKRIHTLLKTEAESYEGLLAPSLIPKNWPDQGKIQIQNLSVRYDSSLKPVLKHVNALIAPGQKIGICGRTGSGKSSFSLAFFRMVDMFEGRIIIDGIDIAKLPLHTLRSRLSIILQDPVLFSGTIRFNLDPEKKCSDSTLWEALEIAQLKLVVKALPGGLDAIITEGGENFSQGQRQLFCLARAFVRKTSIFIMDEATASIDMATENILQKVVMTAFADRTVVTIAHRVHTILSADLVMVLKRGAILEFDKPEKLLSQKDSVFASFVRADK
Sequence of KATP channel (Q61743 whole entry partner): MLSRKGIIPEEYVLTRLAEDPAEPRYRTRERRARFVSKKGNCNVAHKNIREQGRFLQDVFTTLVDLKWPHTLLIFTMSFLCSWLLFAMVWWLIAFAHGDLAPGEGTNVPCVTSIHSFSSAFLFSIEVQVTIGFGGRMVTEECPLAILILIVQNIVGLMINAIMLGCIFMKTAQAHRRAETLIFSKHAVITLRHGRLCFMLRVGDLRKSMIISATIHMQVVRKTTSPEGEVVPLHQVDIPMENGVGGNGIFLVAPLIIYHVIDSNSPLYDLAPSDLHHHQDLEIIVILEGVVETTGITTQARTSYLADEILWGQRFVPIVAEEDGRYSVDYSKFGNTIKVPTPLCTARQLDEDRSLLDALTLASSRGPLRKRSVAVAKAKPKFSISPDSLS

Row | Molecule | effect on glucose-induced insulin release from NKO gut [1] | lowering of blood glucose (in words) ([2]; injected into newborn mice, compared with NKO intestine extract) | ability to lower blood glucose after addition of insulin-neutralizing antibody ([2]; sample mixed with insulin-neutralizing antibody)
1 | CC1=NS(=O)(=O)c2cc(Cl)ccc2N1 [diazoxide] | blunted | – | –
2 | recombinant human insulin: recombinant human insulin (Humulin R, Eli Lilly), 10 U/ml in acid-ethanol | – | similar | preempted
